The values that follow come from patent US20170224775A1, “Lv PEPTIDE, ANTI-Lv ANTIBODY AND METHODS THEREOF” (The Texas A&M University System, priority 2016, published 2017).

What all share (format): cell-based, chicken
For one test, the system named is L-VGCC. Nature of the test: Whole-cell patch-clamp recordings of L-VGCC currents in cultured embryonic cardiomyocytes. Here is the method: (§1) Fertilized eggs (Gallus gallus, Single Comb White Leghorns) were obtained from the Poultry Science Department, Texas A&M University (College Station, Tex., USA). All chicken embryos were maintained at 39° C.±0.5° C. Chicken hearts were harvested at embryonic day 12 (E12) and ventricular cardiomyocytes were dissociated and cultured on poly-D-lysine/collagen double-coated dishes (for biochemical and molecular biological assays) or coverslips (for electrophysiological recordings) as described previously. All cultures were maintained at 39° C.±0.5° C. with 5% CO2. Cells were cultured for 2-3 days and subjected to treatments with vehicle, peptide Lv, or pharmaceutical blockers prior to Western blotting or electrophysiological recordings.
Ventricular cardiomyocytes were cultured for two days. Whole-cell patch-clamp recordings of L-VGCC currents were carried out from spontaneously pulsing cardiomyocytes. The external solution was (in mM): 145 TEACl, 9 BaCl2, 0.5 MgCl2, 5.5 glucose, 0.1 NiCl2, and 5 HEPES, pH 7.4 with CsOH or TEAOH. The pipette solution was (in mM): 125 Cs acetate, 20 CsCl, 3MgCl2, 10 EGTA, and 5 HEPES, pH 7.4 adjusted with CsOH. Currents were recorded at room temperature using an A-M Systems model 2400 patch-clamp amplifier (Sequim, Wash., USA). Signals were low-pass filtered at 2 kHz and digitized at 5 kHz with Digidata 1440A interface and pCLAMP 10.0 software (Molecular Devices, Sunnyvale, Calif., USA). Cardiomyocytes were held at −40 mV, and Ba^2+ currents were recorded immediately after whole-cell patches were formed by gentle suctions. Current-voltage (I-V) relationships were elicited from a holding potential at −40 mV using 200 ms steps (5 seconds between steps) over a range from −60 to +60 mV in 10 mV increments. The current densities were calculated by dividing the current amplitudes (pA) by membrane capacitances (pF).
In general terms: Patch clamp records ionic current or voltage across a cell membrane.

The next test deals with ERK and PKC. The experiment in a line: Western blot of pERK and pPKCα/β (downstream of VEGFR2) in cultured cardiomyocytes. Particulars: inhibitor with peptide Lv. Here is the method: as §1
(§2) Treated or control cells were washed and lysed in radioimmunoprecipitation assay (RIPA) buffer, and proteins were denatured by mixing with 2× Laemmli sample buffer for 5 minutes at 95° C. Samples were separated on 10% sodium dodecyl sulfate-polyacrylamide gel electrophoresis (SDS-PAGE) gels and transferred to nitrocellulose membranes. The primary antibodies used in this study were pan L-VGCCα1, ERK1/2, di-phosphorylated ERK1/2, actin, phosphorylated PKC α/βII subunit, phosphorylated tyrosine, VEGFR2, and phosphorylated VEGFR2 at tyr1054/1059. […]
On the technique in general: Immunoblotting shows a protein as a band on a membrane.

The subject of another test is VEGFR2. Nature of the test: Western blot of VEGFR2 autophosphorylation (pVEGFR2-tyr1054/1059) in cultured embryonic cardiomyocytes. The following applies: DMH4 in presence of peptide Lv. The method, then:
as §1, §2

On to `COc1cccc(-c2cc(=O)c3ccccc3o2)c1N` [PD98059], for which, in the test on L-VGCC (PD98059 50 μM), the “peptide Lv augmentation of L-VGCC currents” value was “decreased the peptide Lv augmentation of L-VGCC currents”.

In the case of `CN=c1nc(-c2ccccc2)n(-c2ccccc2)s1` [SCH202676], the “inhibition of effects of peptide Lv on pERK and pPKCα/β” value in the test with ERK and PKC was “did not inhibit the effects of peptide Lv on pERK and pPKCα/β”.

For the molecule `COc1ccc2c(c[n+](C)c3c4cc5c(cc4ccc23)OCO5)c1OC` [chelerythrine], the “peptide Lv augmentation of L-VGCC currents” value in the test on L-VGCC (chelerythrine 2 μM) is “decreased the peptide Lv augmentation of L-VGCC currents”.

DMH4: the “inhibition of peptide Lv-enhanced VEGFR2 phosphorylation” value with VEGFR2 is given as “sensitive to DMH4 inhibition”. Also, in the test on L-VGCC (DMH4 5 μM with VEGFa), the “block of VEGFa augmentation of L-VGCCs” value was “blocked the augmentation of L-VGCCs by VEGFa”. For the same molecule, the “L-VGCCs, inhibitor by itself” value in the test on L-VGCC (DMH4 alone, without peptide Lv) was “did not affect the LVGCCs”. The “block of peptide Lv augmentation of L-VGCC currents” value with L-VGCC (DMH4 together with peptide Lv) is “able to block the augmentation effect of peptide Lv on L-VGCC currents”.
